Data reported in patent EP4567034A1 (Korea Institute of Science and Technology, priority 2022, dated 2024).

System: blood lymphocyte count
Test: Decrease in blood lymphocyte count in normal rats after oral administration
Assay type: in vivo, rat
Conditions: 10 mg/kg for the compounds, within 5 hours after drug administration, percentage based on count before administration
Description: In order to confirm the effect of administration of the four compounds selected from Experimental Example 1, Compounds 13, 62, 64, and 66, on the decrease in the blood lymphocyte count in rodents in vivo, blood was collected before and after compound administration, and the decrease in the blood lymphocyte count over time was measured using an automatic blood counter, and the results are shown in FIG. 1.
Specifically, 5-week-old male rats (rat, wister, 160-180 g) were acclimated in a temperature- and humidity-controlled breeding room, and the four selected compounds were dissolved in 5% DMSO and 10% Kolliphor HS15 aqueous solution and orally administered at a dose of 10 mg/kg. Blood was collected from the tail vein with a syringe during inhalation anesthesia with 4% isoflurane and transferred to an EDTA-coated tube. The lymphocyte count was measured from the collected blood using an automatic blood counter. As a positive control group, rats administered with fingolimod, a known S1P1 receptor modulator, were used.
As in the positive control group, fingolimod-administered group, it was confirmed that the group administered with the compounds of the Examples within 5 hours after drug administration induced a decrease in the lymphocyte count by 50% or less.

CCCCCCCCc1ccc(CCC(N)(CO)CO)cc1 [fingolimod]
decrease in the lymphocyte count: ≤ 50%
